In PubChem BioAssay (NCI):
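Dose response: 5 concentrations. Exposure: 48 h. Format: 96-well plates. Endpoint: linear interpolation; highest concentration if not reached. TGI marks complete inhibition of growth.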

Experiments:
Test in all cases: DTP human tumour cell line panel, 48 h
RPMI-8226 leukemia = test system: RPMI-8226 leukemia
RXF 393 renal = test system: RXF 393 renal
HOP-18 NSCLC = test system: HOP-18 NSCLC
A549 NSCLC = test system: A549 NSCLC
786-0 renal = test system: 786-0 renal
DLD-1 colon = test system: DLD-1 colon
NCI-H23 lung = test system: NCI-H23 lung
EKVX NSCLC = test system: EKVX NSCLC
RXF-631 renal = test system: RXF-631 renal
OVCAR-3 ovarian = test system: OVCAR-3 ovarian
UO-31 renal = test system: UO-31 renal
OVCAR-5 ovarian = test system: OVCAR-5 ovarian
LOX IMVI melanoma = test system: LOX IMVI melanoma
HOP-62 NSCLC = test system: HOP-62 NSCLC
SK-MEL-2 melanoma = test system: SK-MEL-2 melanoma
SK-MEL-28 melanoma = test system: SK-MEL-28 melanoma
K-562 leukemia = test system: K-562 leukemia
CCRF-CEM leukemia = test system: CCRF-CEM leukemia
SF-268 CNS = test system: SF-268 CNS
CAKI-1 renal = test system: CAKI-1 renal
OVCAR-4 ovarian = test system: OVCAR-4 ovarian
A498 renal = test system: A498 renal
KM20L2 colon = test system: KM20L2 colon
M14 melanoma = test system: M14 melanoma
NCI-H460 lung = test system: NCI-H460 lung
UACC-257 melanoma = test system: UACC-257 melanoma
SN12C renal = test system: SN12C renal
NCI-H226 lung = test system: NCI-H226 lung
HCT-15 colon = test system: HCT-15 colon
HCT-116 colon = test system: HCT-116 colon
MALME-3M melanoma = test system: MALME-3M melanoma
KM12 colon = test system: KM12 colon
HOP-92 NSCLC = test system: HOP-92 NSCLC
IGROV1 ovarian = test system: IGROV1 ovarian
HCC-2998 colon = test system: HCC-2998 colon
TK-10 renal = test system: TK-10 renal
SF-539 CNS = test system: SF-539 CNS
ACHN renal = test system: ACHN renal
UACC-62 melanoma = test system: UACC-62 melanoma
COLO 205 colon = test system: COLO 205 colon
SF-295 CNS = test system: SF-295 CNS
NCI-H522 lung = test system: NCI-H522 lung
DMS 114 small cell lung = test system: DMS 114 small cell lung
SW-620 colon = test system: SW-620 colon
SNB-19 CNS = test system: SNB-19 CNS
U251 CNS = test system: U251 CNS
MOLT-4 leukemia = test system: MOLT-4 leukemia
SNB-75 CNS = test system: SNB-75 CNS
OVCAR-8 ovarian = test system: OVCAR-8 ovarian
SK-OV-3 ovarian = test system: SK-OV-3 ovarian
XF 498 CNS = test system: XF 498 CNS
HT29 colon = test system: HT29 colon
LXFL 529 NSCLC = test system: LXFL 529 NSCLC
DMS 273 small cell lung = test system: DMS 273 small cell lung
SK-MEL-5 melanoma = test system: SK-MEL-5 melanoma
HL-60(TB) leukemia = test system: HL-60(TB) leukemia
M19-MEL melanoma = test system: M19-MEL melanoma

## Cc1c(Cl)ccc2c1NC(=O)C2(O)CC(=O)c1ccc2ccccc2c1 (stereo not given)
RPMI-8226 leukemia
  TGI: 46.7 µM
RXF 393 renal
  TGI: 88.9 µM
HOP-18 NSCLC
  TGI: > 100 µM
A549 NSCLC
  TGI: > 100 µM
786-0 renal
  TGI: > 100 µM
DLD-1 colon
  TGI: > 100 µM
NCI-H23 lung
  TGI: > 100 µM
EKVX NSCLC
  TGI: > 100 µM
RXF-631 renal
  TGI: > 100 µM
OVCAR-3 ovarian
  TGI: > 100 µM
UO-31 renal
  TGI: > 100 µM
OVCAR-5 ovarian
  TGI: > 100 µM
LOX IMVI melanoma
  TGI: > 100 µM
HOP-62 NSCLC
  TGI: > 100 µM
SK-MEL-2 melanoma
  TGI: > 100 µM
SK-MEL-28 melanoma
  TGI: > 100 µM
K-562 leukemia
  TGI: > 100 µM
CCRF-CEM leukemia
  TGI: > 100 µM
SF-268 CNS
  TGI: > 100 µM
CAKI-1 renal
  TGI: > 100 µM
OVCAR-4 ovarian
  TGI: > 100 µM
A498 renal
  TGI: > 100 µM
KM20L2 colon
  TGI: > 100 µM
M14 melanoma
  TGI: > 100 µM
NCI-H460 lung
  TGI: > 100 µM
UACC-257 melanoma
  TGI: > 100 µM
SN12C renal
  TGI: > 100 µM
NCI-H226 lung
  TGI: > 100 µM
HCT-15 colon
  TGI: > 100 µM
HCT-116 colon
  TGI: > 100 µM
MALME-3M melanoma
  TGI: > 100 µM
KM12 colon
  TGI: > 100 µM
HOP-92 NSCLC
  TGI: > 100 µM
IGROV1 ovarian
  TGI: > 100 µM
HCC-2998 colon
  TGI: > 100 µM
TK-10 renal
  TGI: > 100 µM
SF-539 CNS
  TGI: > 100 µM
ACHN renal
  TGI: > 100 µM
UACC-62 melanoma
  TGI: > 100 µM
COLO 205 colon
  TGI: > 100 µM
SF-295 CNS
  TGI: > 100 µM
NCI-H522 lung
  TGI: 61.7 µM
DMS 114 small cell lung
  TGI: 58.4 µM
SW-620 colon
  TGI: > 100 µM
SNB-19 CNS
  TGI: > 100 µM
U251 CNS
  TGI: > 100 µM
MOLT-4 leukemia
  TGI: 89.5 µM
SNB-75 CNS
  TGI: 54.2 µM
OVCAR-8 ovarian
  TGI: > 100 µM
SK-OV-3 ovarian
  TGI: > 100 µM
XF 498 CNS
  TGI: > 100 µM
HT29 colon
  TGI: > 100 µM

## CN(CC(=O)O)S(=O)(=O)c1ccc(F)cc1
LXFL 529 NSCLC
  TGI: > 100 µM
RPMI-8226 leukemia
  TGI: > 100 µM
RXF 393 renal
  TGI: > 100 µM
DMS 273 small cell lung
  TGI: > 100 µM
HOP-18 NSCLC
  TGI: > 100 µM
A549 NSCLC
  TGI: > 100 µM
786-0 renal
  TGI: > 100 µM
DLD-1 colon
  TGI: > 100 µM
NCI-H23 lung
  TGI: > 100 µM
EKVX NSCLC
  TGI: > 100 µM
RXF-631 renal
  TGI: > 100 µM
OVCAR-3 ovarian
  TGI: > 100 µM
UO-31 renal
  TGI: > 100 µM
SK-MEL-5 melanoma
  TGI: > 100 µM
OVCAR-5 ovarian
  TGI: > 100 µM
HL-60(TB) leukemia
  TGI: > 100 µM
M19-MEL melanoma
  TGI: > 100 µM
LOX IMVI melanoma
  TGI: > 100 µM
SK-MEL-2 melanoma
  TGI: > 100 µM
SK-MEL-28 melanoma
  TGI: > 100 µM
K-562 leukemia
  TGI: > 100 µM
CCRF-CEM leukemia
  TGI: > 100 µM
SF-268 CNS
  TGI: > 100 µM
CAKI-1 renal
  TGI: > 100 µM
OVCAR-4 ovarian
  TGI: > 100 µM
A498 renal
  TGI: > 100 µM
KM20L2 colon
  TGI: > 100 µM
M14 melanoma
  TGI: > 100 µM
NCI-H460 lung
  TGI: > 100 µM
UACC-257 melanoma
  TGI: > 100 µM
SN12C renal
  TGI: > 100 µM
HCT-15 colon
  TGI: > 100 µM
MALME-3M melanoma
  TGI: > 100 µM
KM12 colon
  TGI: > 100 µM
HOP-92 NSCLC
  TGI: > 100 µM
IGROV1 ovarian
  TGI: > 100 µM
HCC-2998 colon
  TGI: > 100 µM
TK-10 renal
  TGI: > 100 µM
SF-539 CNS
  TGI: > 100 µM
ACHN renal
  TGI: > 100 µM
UACC-62 melanoma
  TGI: > 100 µM
COLO 205 colon
  TGI: > 100 µM
SF-295 CNS
  TGI: > 100 µM
NCI-H522 lung
  TGI: > 100 µM
SW-620 colon
  TGI: > 100 µM
SNB-19 CNS
  TGI: > 100 µM
U251 CNS
  TGI: > 100 µM
MOLT-4 leukemia
  TGI: > 100 µM
SNB-75 CNS
  TGI: > 100 µM
OVCAR-8 ovarian
  TGI: > 100 µM
SK-OV-3 ovarian
  TGI: > 100 µM
XF 498 CNS
  TGI: > 100 µM
HT29 colon
  TGI: > 100 µM
